Source: US20130310347A1, “MULTI-MODALITY MOLECULAR IMAGING HIGH-THROUGHPUT ASSAY FOR IDENTIFYING HEAT SHOCK PROTEIN 90 (HSP90) INHIBITORS” (The Board of Trustees of the Leland Stanford Junior …, priority 2012, published 2013)

Columns and labels:
Hsp90β/p23 interactions = biological target: T1, Hsp90β/p23 interactions (Homo sapiens, UniProt P08238); test: RL/FL bioluminescence imaging of 293T xenografts in living mice; assay type: in vivo; settings: CP9 80 mg/kg i.p., p>0.05
T1 construct: expressed in transfected cells; also with FL-eGFP reporter (293Tβ-FG) and as xenografts in nude mice
T1 sequence (P08238 whole entry): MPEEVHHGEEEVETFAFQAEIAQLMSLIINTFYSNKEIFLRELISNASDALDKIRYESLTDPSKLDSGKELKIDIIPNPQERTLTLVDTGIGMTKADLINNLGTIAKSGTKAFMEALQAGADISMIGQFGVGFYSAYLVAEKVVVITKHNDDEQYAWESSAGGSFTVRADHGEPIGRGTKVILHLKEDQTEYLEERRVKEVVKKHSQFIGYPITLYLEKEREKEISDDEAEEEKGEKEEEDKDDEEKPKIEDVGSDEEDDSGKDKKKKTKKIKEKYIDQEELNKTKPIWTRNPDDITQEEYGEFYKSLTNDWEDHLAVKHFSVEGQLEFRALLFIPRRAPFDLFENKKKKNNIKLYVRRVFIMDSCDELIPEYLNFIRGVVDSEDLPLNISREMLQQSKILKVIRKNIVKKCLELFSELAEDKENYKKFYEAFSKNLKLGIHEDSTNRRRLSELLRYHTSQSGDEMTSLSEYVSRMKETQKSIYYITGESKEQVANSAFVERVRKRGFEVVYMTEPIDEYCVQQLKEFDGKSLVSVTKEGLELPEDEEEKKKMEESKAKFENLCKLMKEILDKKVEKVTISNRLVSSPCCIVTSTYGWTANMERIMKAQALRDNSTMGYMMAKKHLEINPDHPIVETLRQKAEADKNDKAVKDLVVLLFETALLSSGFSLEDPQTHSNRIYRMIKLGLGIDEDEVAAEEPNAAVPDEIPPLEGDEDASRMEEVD
Experimental: Maximum radiance (photons/sec/cm^2/sr) from RL signals was normalized to that of FL signals at each site and at each time point to account for the effect of CP9 on cell proliferation. The RL/FL ratios were normalized to that of time 0 h to monitor the individual change in Hsp90(α/β)/p23 interactions in each mouse over time. Results were expressed as mean±S.E.M for the control and treatment groups for Hsp90α/p23 (left panel) and Hsp90β/p23 interactions (right panel).
To monitor the inhibition of Hsp90(α/β)/p23 interactions by CP9 in living mice, a second reporter (FL-eGFP) was introduced into the 293T cells stably expressing Hsp90(α/β)/p23 split RL reporters (now referred as 293T(α/β)—FG cells). Although ^18F-FLT has also been used to monitor tumor cell proliferation in small animals by PET (Tseng et al., (2005) J. Nucl. Med. 46: 1851-1857), FL imaging was used because of the higher sensitivity and ease of performing sequentially with RL imaging for Hsp90(α/β)/p23 interactions. […] Baseline RL and FL signals in each implanted tumor were determined upon i.v. substrate injection.
Based on experience with the Hsp90 inhibitors 17-AAG and PU-H71, CP9 (80 mg/kg) (n=5) was tested in animal experiments by i.p. injection with four doses at […] post baseline imaging (FIG. 7A). An equal volume of DMSO was injected into the carrier control group (n=5, FIG. 7B). Mice treated with 75 mg/kg PU-H71 (n=2) served as positive controls. Mice were re-imaged for Hsp90(α/β)/p23 interactions and cell proliferation via RL (FIG. 5B, left panels) and FL (FIG. 5B, right panels) imaging at the time points indicated, respectively. To account for the effect of cell number on Hsp90(α/β)/p23 interactions, RL signals were normalized to FL signals for each tumor at each time point, prior to normalization to that of time 0 h.
Mice were gas anesthetized using isofluorane (2% in 100% oxygen, 1 L/min) during all injection and imaging procedures and kept at 37° C. Mice were imaged using a cooled CCD camera (IVIS 200, Caliper Life Sciences, Mountain View, Calif.). […] Baseline RL activities in the implanted tumors in living mice were determined by i.v. injection of 30 μg cltz (in 150 μl of 5% ethanol: 95% PBS) and image acquisition of 3 mins. After a 30 mins wait for RL signals to decay, FL activities were determined by i.v. injection of 163 μg of D-Luc in 100 μl PBS with image acquisition of 10 sequences for 15 sec each to obtain the peak max radiance. […] Maximum radiance of RL was divided by that of FL signals at each time point, prior to normalization to that of time 0 hr for each individual mouse, and expressed as average radiance±S.E.M for each treatment group.

[1] = system: 293T Hsp90(α/β)/p23-FG xenografts; test: 18F-FDG small animal PET/CT of tumor glucose metabolism; assay type: in vivo, mice
Experimental: FIG. 8B is a graph illustrating quantitation of the effect of CP9 on inhibition of glucose metabolism. The PET image of each mouse and each site at each time point was reconstructed and quantified using the OSEM 2D algorithm. The increase in max % ID/g at 43 h relative to 0 hr is shown as average±S.E.M. CP9 led to significant decrease in glucose metabolism, compared to carrier control treated mice (p<0.005).
^18F-FDG PET/CT has been used for repetitive and non-invasive monitoring of chemotherapy responses both in small animals and in humans (Aliaga et al., (2007) Mol. Imaging. Biol. 9: 144-150; de Geus-Oei et al., (2009) J. Nucl. Med. 50(Suppl 1): 43S-54S). Since CP9 inhibits glucose metabolism in cancer cells (FIG. 6B), its effect in the same cohort of living mice used for BLI (FIGS. 7A-7C) was monitored by small animal PET/CT imaging using ^18F-FDG. […] Baseline ^18F-FDG uptake in tumor-bearing mice was determined pre-treatment with four doses of carrier control (DMSO) or CP9 (80 mg/kg in DMSO) (FIG. 8A). The % max ID/g of ^18F-FDG uptake was determined by the OSEM2D method upon normalization of injected dose (Wiant et al., (2010) Med. Phys. 37: 1169-1182). The % increase in ^18F-FDG uptake at 43 h relative to 0 h was determined for each tumor site. […]

RL/FL ratio in Hsp90β/p23 xenografts, normalized to time 0 h (Hsp90β/p23 interactions; 14 h): 58±18%
RL/FL ratio in Hsp90β/p23 xenografts, normalized to time 0 h (Hsp90β/p23 interactions; 38 h): 83±42%
Compound: Cc1cc(NC(=O)CSc2nc(-c3cccs3)cc(C(F)(F)F)n2)no1 [CP9, N-(5-methylisoxazol-3-yl)-2-(4-(thiophen-2-yl)-6-(trifluoromethyl)pyrimidin-2-ylthio)acetamide]
decrease in 18F-FDG uptake in tumors relative to carrier control treated mice ([1]; CP9 treatment, 43 h): 40%
decrease in 18F-FDG uptake in tumors at 43 h relative to 0 h ([1]; four doses CP9 80 mg/kg in DMSO, n=10 tumors, p<0.005 vs carrier control): 16±9%
